The results in this text go back to patent publication US20230257355A1, “HYDROXAMIC ACID-CONTAINING COMPOUND, AND PREPARATION METHOD AND USE THEREOF” (CHINA PHARMACEUTICAL UNIVERSITY, priority 2020, published 2023).

Each structure is given as a SMILES string.

The target in one assay is T1, ASM (Homo sapiens, UniProt P17405).
T1 construct: A protein in cultivated cells was extracted, a buffer and a fluorescently-labeled reaction substrate were added; endogenous in cells
T1 sequence (P17405 47-631): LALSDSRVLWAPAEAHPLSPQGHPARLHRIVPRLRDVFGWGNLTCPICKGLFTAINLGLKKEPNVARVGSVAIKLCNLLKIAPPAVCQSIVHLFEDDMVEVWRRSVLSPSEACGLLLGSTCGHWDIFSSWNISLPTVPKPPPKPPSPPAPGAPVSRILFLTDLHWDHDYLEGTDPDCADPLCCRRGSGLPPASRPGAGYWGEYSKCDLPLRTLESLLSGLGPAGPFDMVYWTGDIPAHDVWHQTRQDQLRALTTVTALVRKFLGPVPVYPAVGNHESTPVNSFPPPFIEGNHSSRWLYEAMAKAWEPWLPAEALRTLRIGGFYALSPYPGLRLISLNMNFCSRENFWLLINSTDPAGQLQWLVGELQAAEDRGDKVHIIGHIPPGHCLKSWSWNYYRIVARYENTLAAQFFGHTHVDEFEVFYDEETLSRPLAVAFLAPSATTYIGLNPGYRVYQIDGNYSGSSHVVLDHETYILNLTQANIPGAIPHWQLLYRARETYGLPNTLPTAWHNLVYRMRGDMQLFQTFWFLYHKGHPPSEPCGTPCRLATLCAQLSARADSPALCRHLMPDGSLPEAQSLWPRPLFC
The assay can be described thus: Inhibition of compounds on ASM activity (cell protein extract, fluorescently-labeled substrate). Format: biochemical. The following applies: for IC50: protein extracted from cultivated cells, fluorescently-labeled substrate. As to the method:
ASM can hydrolyze sphingomyelin to produce ceramides in cells. For a specified amount of a fluorescently-labeled reaction substrate (Avanti Corporation, USA), different ASM activities catalyze the generation of a product at different amounts. Thus, an ASM activity level can be investigated by detecting a product content. The experiment design of the present disclosure is carried out according to the above principle.
A blank control group was set. After the reaction was completed, fluorescence analysis was performed, and finally an IC50 value of the compound was calculated.
A blank control group was set. After the reaction was completed, fluorescence analysis was performed.

Assay [1] concerns chronic depression rat model established by reserpine. The assay can be described thus: Sucrose preference test (SPT) in reserpine chronic depression rat model. The note with it: rats. In kind it is in vivo. As to the method:
(§1) In the present disclosure, a chronic depression rat model was established by reserpine (reference: NeurotoxRes, 2014, doi: 10.1007/s12640-013-9454-8). Specific experimental steps were as follows: In a normal group, 8 rats were randomly selected and raised normally. Rats in the remaining groups each were injected intraperitoneally with reserpine at 0.2 mg/kg once every day for three days. Rats in the remaining groups each were intraperitoneally injected with the compound I-1 at different doses (3 mg/kg, 6 mg/kg, and 12 mg/kg), a positive drug amitriptyline (6 mg/kg), or no drug. Two weeks after the administration, the OFT was performed (reference: China Pharmacy, 2016, 27 (19): 2697-2699), and after the OFT was completed, the SPT was performed. After the OFT was completed, all rats were first trained to drink 10 g/L sucrose-containing water. That is, tap water was replaced with 10 g/L sucrose-containing water within the first 48 h, then the water and food were deprived for 20 h, and then 10 g/L sucrose-containing water was provided for drinking and the drinking amount within 24 h was calculated.

The subject of assay [2] is ApoE-knockout mice AS model. Briefly: Plasma lipid indexes in ApoE-knockout AS mice. Format: in vivo. The note with it: versus non-administration Control group. As to the method:
The mice were randomly divided into 6 groups, with 5 mice in each group. The groups were intraperitoneally injected respectively with a blank solvent, a blank solvent, 12 mg/kg compound I-1, and 40 mg/kg compound I-1 once every day for 8 weeks. After the experiment was completed, the animals were sacrificed and main arteries were collected.

The test system of assay [3] is ApoE-knockout mice AS model. The assay can be described thus: Anti-AS effect: aortic plaque area in ApoE-knockout mice on high-fat diet. In kind it is in vivo. As for the experimental part: The mice were randomly divided into 6 groups, with 5 mice in each group. The groups were intraperitoneally injected respectively with a blank solvent, a blank solvent, 12 mg/kg compound I-1, and 40 mg/kg compound I-1 once every day for 8 weeks. After the experiment was completed, the animals were sacrificed and main arteries were collected. The main arterial vessels were directly observed and photographed under a microscope. […] The collected arterial vessels were subjected to lipid staining with ORO and then photographed under a microscope, and image analysis was performed.

The subject of assay [4] is chronic depression rat model established by reserpine. Briefly: Open field test (OFT) in reserpine chronic depression rat model. Format: in vivo. The following applies: rats. As to the method: as §1, with “performed.” for “performed. After the OFT was completed, all rats were first trained to drink 10 g/L sucrose-containing water. That is, tap water was replaced with 10 g/L sucrose-containing water within the first 48 h, then the water and food were deprived for 20 h, and then 10 g/L sucrose-containing water was provided for drinking and the drinking amount within 24 h was calculated.”

[5] abbreviates: i.p. 3, 6, 12 mg/kg, two weeks after administration.

What is called inhibition is how much of the control response was suppressed. Low readings indicate little suppression, high ones strong suppression. Take `O=C(NO)c1ccc2ncn(-c3ccc(OCc4ccccn4)cc3)c2c1` [Compound I-13]: on ASM, the inhibition at 1 µM amounted to 14% and the inhibition at 10 µM worked out at 22%.
A word on the IC50: it is the point on the concentration scale where inhibition reaches its midpoint. At ASM, `O=C(NO)c1ccc2ncn(-c3ccc(OCc4ccc(C(F)(F)F)cc4C(F)(F)F)cc3)c2c1` [Compound I-8] returned an IC50 of 1160 nM.
Consider `O=C(NO)c1ccc2ncn(-c3ccc(OCc4ccc(Cl)cc4)cc3)c2c1` [Compound I-1, 1-(4-((4-chlorobenzyl)oxy)phenyl)-N-hydroxy-1H-benzo[d]imidazole-6-carboxamide], for which, at ASM, the IC50 came out at 470 nM. Besides, the “SPT effect versus positive control amitriptyline (6 mg/kg)” value in assay [1] (high-dose 12 mg/kg i.p.) is “slightly lower than that of the positive control drug amitriptyline”. In addition, the “SPT effect versus model group” value in assay [1] (high-dose 12 mg/kg i.p., p < 0.01) is “significantly different from that of the model group”. Moreover, in assay [1] (i.p., 10 g/L sucrose water, drinking amount within 24 h), the “SPT uptake capacity for sucrose-containing water” value is reported as “significantly restored”. In assay [2], the HDL in plasma entry is reported as “no impact”, the “LDL level in plasma” value is listed as “significantly increased”, the “Total TG in plasma” value is reported as “no impact” and the “Total cholesterol in plasma” value is “no impact”. Also, the “Plaque area of AS (ORO lipid staining)” value in assay [3] (12 mg/kg i.p. once daily for 8 weeks) was “significantly reduce”. Further, the “Plaque area of AS (ORO lipid staining)” value in assay [3] (40 mg/kg i.p. once daily for 8 weeks) is recorded as “significantly reduce”. The “Aortic arch plaque area (direct microscopy)” value in assay [3] (i.p. once daily for 8 weeks, different doses (12 and 40 mg/kg)) is “significantly reduced”. Besides, the “OFT behavioral indexes versus amitriptyline (6 mg/kg)” value in assay [4] (high-dose 12 mg/kg i.p.) is “comparable to that of rats in the amitriptyline control group”. In addition, in assay [4] (setting [5]), the “OFT frequency of grooming” value is listed as “significantly improved”, the “OFT frequency of upright” value was “significantly improved”, the “OFT times passing the grid” value is listed as “significantly improved” and the “OFT total time in center” value is given as “significantly improved”.
As for `O=C(NO)c1ccc2ncn(-c3ccc(OCc4ccc(C(F)(F)F)cn4)cc3)c2c1` [Compound I-14], on ASM, the inhibition at 1 µM was 24% and at 10 µM the inhibition was 76%.
In turn, `O=C(NO)c1ccc2ncn(CCCOCc3ccc(C(F)(F)F)cc3)c2c1` [Compound I-5] had an IC50 against ASM of 2780 nM.
Take `O=C(NO)c1ccc2ccn(-c3ccc(OCc4ccc(C(F)(F)F)cc4)cc3)c2c1` [II-1, 1-(4-((4-trifluoromethylbenzyl)oxy)phenyl)-N-hydroxy-1H-indole-6-carboxamide]: on ASM, the inhibition at 1 µM amounted to 74% and testing at 10 µM gave an inhibition of 91%.
At ASM, `COc1ccc(COc2ccc(-n3ccc4ccc(C(=O)NO)cc43)cc2)cc1` [II-2, 1-(4-((4-methoxybenzyl)oxy)phenyl)-N-hydroxy-1H-indole-6-carboxamide] returned an inhibition at 1 µM of 69% and an inhibition at 10 µM of 88%.
As to `O=C(NO)c1ccc2ncn(-c3ccc(OCc4cccc(C(F)(F)F)c4)cc3)c2c1` [Compound I-6], half-maximal inhibition at ASM (IC50) required 1240 nM.
The same measure, in the same setting: under `O=C(NO)c1ccc2ncn(-c3ccc(OCc4ccc(C(F)(F)F)cc4)cc3)c2c1` [Compound I-3] stands 3680 nM.
`N#Cc1ccc(COc2ccc(-n3cnc4ccc(C(=O)NO)cc43)cc2)cc1` [Compound I-11]: on ASM, the inhibition at 1 µM stood at 8% and 10 µM produced 83% inhibition.
Take `O=C(NO)c1ccc2ncn(-c3ccc(OCc4cc(C(F)(F)F)cc(C(F)(F)F)c4)cc3)c2c1` [Compound I-9]: at ASM, testing at 1 µM gave an inhibition of 80% and the inhibition at 10 µM came out at 93%.
At ASM, `COc1ccc(COc2ccc(-n3cnc4ccc(C(=O)NO)cc43)cc2)cc1` [Compound I-12] showed an inhibition at 1 µM of 70% and an inhibition at 10 µM of 82%.
In turn, `O=C(NO)c1ccc2ncn(-c3ccc(OCc4ccc(Cl)c(C(F)(F)F)c4)cc3)c2c1` [Compound I-7] displayed a half-maximal inhibitory concentration (IC50) at ASM of 390 nM.
`O=C(NO)c1ccc2ncn(-c3ccc(OCc4ccc(F)cc4)cc3)c2c1` [Compound I-10]: at ASM, testing at 1 µM gave an inhibition of 20% and the inhibition at 10 µM was found to be 50%.
